# Source: ChEMBL document CHEMBL1137878, “Synthesis and evaluation of novel oxazoline MMP inhibitors” (Bioorg Med Chem Lett, 2004)
# Key:
# [1] = target: T1, Interstitial collagenase (Homo sapiens, UniProt P03956); test: Inhibitory activity against matrix metalloprotease-1; NA denotes no activity upto solubility limit
# T1 sequence (P03956 whole entry): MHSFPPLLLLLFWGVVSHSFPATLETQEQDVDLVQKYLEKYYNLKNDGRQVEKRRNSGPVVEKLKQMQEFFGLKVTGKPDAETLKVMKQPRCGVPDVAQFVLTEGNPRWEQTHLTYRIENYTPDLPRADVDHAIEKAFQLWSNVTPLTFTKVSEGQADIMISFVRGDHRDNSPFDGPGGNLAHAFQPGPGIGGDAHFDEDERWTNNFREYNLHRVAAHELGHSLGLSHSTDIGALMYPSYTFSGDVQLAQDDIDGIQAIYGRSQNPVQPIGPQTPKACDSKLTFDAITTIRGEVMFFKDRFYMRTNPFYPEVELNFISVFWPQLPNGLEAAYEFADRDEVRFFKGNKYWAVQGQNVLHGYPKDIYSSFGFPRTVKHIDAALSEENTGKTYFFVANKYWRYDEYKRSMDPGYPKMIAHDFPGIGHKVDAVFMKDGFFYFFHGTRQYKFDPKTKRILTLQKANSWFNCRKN
# [2] = target: T2, 72 kDa type IV collagenase (Homo sapiens, UniProt P08253); test: Inhibitory activity against matrix metalloprotease-2
# [3] = target: T3, Macrophage metalloelastase (Homo sapiens, UniProt P39900); test: Inhibitory activity against matrix metalloprotease-12
# [4] = target: T4, Matrix metalloproteinase-9 (Homo sapiens, UniProt P14780); test: Inhibitory activity against matrix metalloprotease-9
# [5] = target: T3, Macrophage metalloelastase; test: Inhibitory activity against matrix metalloprotease-12; NA denotes no activity upto solubility limit
# [6] = target: T1, Interstitial collagenase; test: Inhibitory activity against matrix metalloprotease-1
# [7] = target: T2, 72 kDa type IV collagenase; test: Inhibitory activity against matrix metalloprotease-2; NA denotes no activity upto solubility limit
# [8] = target: T4, Matrix metalloproteinase-9; test: Inhibitory activity against matrix metalloprotease-9; NA denotes no activity upto solubility limit
# [9] = target: T4, Matrix metalloproteinase-9; test: Inhibitory activity against matrix metalloprotease-9; F denotes no activity was observed upto the concentration that fluorescence could be compensated for
# [10] = target: T1, Interstitial collagenase; test: Inhibitory activity against matrix metalloprotease-1; F denotes no activity was observed upto the concentration that fluorescence could be compensated for
# T2 sequence (P08253 whole entry): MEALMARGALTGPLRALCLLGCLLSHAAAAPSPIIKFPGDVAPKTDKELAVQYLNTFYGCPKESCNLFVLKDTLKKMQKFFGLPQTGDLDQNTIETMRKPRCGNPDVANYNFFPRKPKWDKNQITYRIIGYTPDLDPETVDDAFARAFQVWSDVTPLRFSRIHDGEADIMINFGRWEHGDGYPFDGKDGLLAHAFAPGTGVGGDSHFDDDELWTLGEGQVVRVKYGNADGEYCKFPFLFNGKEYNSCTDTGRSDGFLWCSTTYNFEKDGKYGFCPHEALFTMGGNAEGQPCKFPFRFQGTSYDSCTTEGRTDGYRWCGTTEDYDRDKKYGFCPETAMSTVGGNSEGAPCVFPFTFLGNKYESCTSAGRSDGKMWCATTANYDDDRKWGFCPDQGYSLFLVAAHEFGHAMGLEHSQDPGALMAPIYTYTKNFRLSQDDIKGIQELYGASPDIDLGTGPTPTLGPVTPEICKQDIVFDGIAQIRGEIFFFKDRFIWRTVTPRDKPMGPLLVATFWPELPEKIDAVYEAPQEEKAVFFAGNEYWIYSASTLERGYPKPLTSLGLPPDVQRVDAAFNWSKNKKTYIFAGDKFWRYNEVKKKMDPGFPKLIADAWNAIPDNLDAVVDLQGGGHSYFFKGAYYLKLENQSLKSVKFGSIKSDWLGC
# T3 sequence (P39900 whole entry): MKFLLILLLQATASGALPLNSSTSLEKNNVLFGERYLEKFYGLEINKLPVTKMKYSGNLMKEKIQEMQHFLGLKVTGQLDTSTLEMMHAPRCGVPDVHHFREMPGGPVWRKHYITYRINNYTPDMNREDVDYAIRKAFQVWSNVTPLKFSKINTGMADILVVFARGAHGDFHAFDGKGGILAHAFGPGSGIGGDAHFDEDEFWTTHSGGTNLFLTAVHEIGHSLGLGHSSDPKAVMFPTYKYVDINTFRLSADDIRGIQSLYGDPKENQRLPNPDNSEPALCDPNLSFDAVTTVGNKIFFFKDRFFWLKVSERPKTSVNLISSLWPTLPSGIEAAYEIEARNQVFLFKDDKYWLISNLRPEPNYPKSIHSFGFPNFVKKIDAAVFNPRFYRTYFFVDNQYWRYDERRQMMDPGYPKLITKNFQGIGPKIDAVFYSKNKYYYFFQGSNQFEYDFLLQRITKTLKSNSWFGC
# T4 sequence (P14780 whole entry): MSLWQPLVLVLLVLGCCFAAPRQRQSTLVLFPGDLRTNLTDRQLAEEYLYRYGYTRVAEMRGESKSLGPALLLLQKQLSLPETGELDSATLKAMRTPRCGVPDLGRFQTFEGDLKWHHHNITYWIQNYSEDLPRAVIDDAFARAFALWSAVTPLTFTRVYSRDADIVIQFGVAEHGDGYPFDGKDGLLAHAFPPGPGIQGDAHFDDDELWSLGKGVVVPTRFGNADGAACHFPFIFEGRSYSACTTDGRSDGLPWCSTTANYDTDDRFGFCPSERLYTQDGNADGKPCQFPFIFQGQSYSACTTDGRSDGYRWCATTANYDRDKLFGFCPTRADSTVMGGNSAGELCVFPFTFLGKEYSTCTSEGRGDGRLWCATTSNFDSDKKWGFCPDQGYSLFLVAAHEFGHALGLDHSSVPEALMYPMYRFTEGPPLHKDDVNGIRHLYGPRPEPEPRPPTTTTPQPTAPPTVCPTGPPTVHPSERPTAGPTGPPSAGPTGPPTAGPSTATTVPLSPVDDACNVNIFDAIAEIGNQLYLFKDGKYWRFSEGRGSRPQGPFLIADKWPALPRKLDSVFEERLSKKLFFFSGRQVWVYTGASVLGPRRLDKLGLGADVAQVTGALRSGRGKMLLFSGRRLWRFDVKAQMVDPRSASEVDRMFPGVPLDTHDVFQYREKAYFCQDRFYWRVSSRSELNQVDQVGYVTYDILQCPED
Structure (SMILES),Ki [1],Ki [4] [µM],Ki [5],Ki [6] [µM],Ki [7],other results
C=C[C@@H]1OC(c2ccc(Br)cc2)=N[C@H]1CO,No Activity,9,,,,Ki [2]: > 600 µM; Ki [3]: > 300 µM
C=C[C@@H]1OC(/C=C/c2ccccc2)=N[C@H]1Sc1ccccc1,,> 100,No Activity,> 100,No Activity,
C=C[C@@H]1OC(CCCCC)=N[C@H]1CO,,> 2000,,,,
C=C[C@@H]1OC(c2ccc(C)cc2)=N[C@H]1CO,No Activity,68,No Activity,,No Activity,
C=C[C@@H]1OC(c2ccc(Cl)cc2)=N[C@H]1SC(C)=O,,,,> 100,No Activity,
C=C[C@@H]1OC(c2ccc(C)cc2)=N[C@H]1Sc1ccccc1,,,No Activity,64,No Activity,
C=C[C@@H]1OC(c2ccc(Br)cc2)=N[C@H]1S,,> 100,,> 200,,
C=C[C@@H]1OC(c2ccc(OC)cc2)=N[C@H]1CO,No Activity,,No Activity,,No Activity,Ki [8]: No Activity
C=C[C@@H]1OC(/C=C/c2ccc(-c3ccccc3)cc2)=N[C@H]1CO,,,No Activity,,No Activity,Ki [8]: No Activity
C=C[C@@H]1OC(CCc2ccccc2)=N[C@H]1CO,No Activity,,,,No Activity,Ki [8]: No Activity
C=C[C@@H]1OC(Cc2ccccc2)=N[C@H]1CO,,6,No Activity,> 500,No Activity,
C=C[C@@H]1OC(/C=C/c2ccccc2)=N[C@H]1S,,94,No Activity,92,No Activity,
C=C[C@@H]1OC(/C=C/c2ccc(Br)cc2)=N[C@H]1CO,,22,No Activity,> 300,No Activity,
C=C[C@@H]1OC(c2ccc(-c3ccccc3)cc2)=N[C@H]1Sc1ccccc1,No Activity,> 100,,,No Activity,
C=C[C@@H]1OC(c2ccc(-c3ccccc3)cc2)=N[C@H]1CO,No Activity,24,,,,
C=C[C@@H]1OC(c2ccc(F)cc2)=N[C@H]1CO,No Activity,,No Activity,,No Activity,Ki [8]: No Activity
C=C[C@@H]1OC(/C=C\C=C\c2ccccc2)=N[C@H]1CO,,8,,32,,Ki [2]: 153 µM; Ki [3]: 49 µM

Structure (SMILES),Ki [1],Ki [4] [µM],Ki [5],Ki [6] [µM],Ki [7],other results
C=C[C@@H]1OC(c2ccc(Oc3ccccc3)cc2)=N[C@H]1CO,,32,,,,
C=C[C@@H]1OC(c2ccc(Br)cc2)=N[C@H]1Sc1ccccc1,,94,,,,
C=C[C@@H]1OC(CCCCCCC)=N[C@H]1CO,,> 2000,,,,
C=C[C@@H]1OC(c2ccccc2)=N[C@H]1CO,No Activity,> 4000,,,,Ki [2]: > 2000 µM; Ki [3]: > 2000 µM
C=CC1=N[C@@H](CO)[C@H](C=C)O1,No Activity,,No Activity,,No Activity,Ki [8]: No Activity
C=C[C@@H]1OC(c2ccc(C)cc2)=N[C@H]1SC(C)=O,No Activity,> 100,No Activity,,No Activity,
C=C[C@@H]1OC(c2ccc(Cl)cc2)=N[C@H]1S,,> 100,No Activity,> 100,No Activity,
C=C[C@@H]1OC(c2ccc(C)cc2)=N[C@H]1S,,> 100,,> 100,,Ki [2]: 88 µM; Ki [3]: > 300 µM
C=C[C@@H]1OC(c2ccc(Br)cc2)=N[C@H]1SC(C)=O,,88,No Activity,> 200,No Activity,
C=C[C@@H]1OC(c2ccc(-c3ccccc3)cc2)=N[C@H]1SC(C)=O,,81,No Activity,> 400,No Activity,
C=C[C@@H]1OC(/C=C/c2ccccc2)=N[C@H]1SC(C)=O,No Activity,> 100,,,,Ki [3]: > 300 µM
C=C[C@@H]1OC(c2ccc(Cl)cc2)=N[C@H]1Sc1ccccc1,No Activity,> 200,No Activity,,,
C=C[C@@H]1OC(c2ccc([N+](=O)[O-])cc2)=N[C@H]1CO,,,,,,Ki [9]: Fluorescence interfered with assay; Ki [3]: > 100 µM; Ki [10]: Fluorescence interfered with assay
C=C[C@@H]1OC(C#Cc2ccccc2)=N[C@H]1CO,,65,No Activity,46,No Activity,
C=C[C@@H]1OC(/C=C/c2ccccc2)=N[C@H]1CO,,40,,,,
C=C[C@@H]1OC(C2CCCCC2)=N[C@H]1CO,No Activity,,No Activity,,No Activity,Ki [8]: No Activity
C=C[C@@H]1OC(c2ccc(Cl)cc2)=N[C@H]1CO,,33,No Activity,> 300,,
